System: Endogenous Huntingtin Protein
Experiment: Endogenous Huntingtin Protein Assay (ELISA-based MSD electrochemiluminescence)
Format: cell-based
Conditions: Table 1
How it was run: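 Sandwich MSD electrochemiluminescence immunoassay. Capture used MW1 (expanded polyglutamine) or MAB2166 antibody coated at 1 μg/mL overnight at 4 °C. Samples were bound overnight at 4 °C, then a rabbit monoclonal detection antibody and SULFO-TAG anti-rabbit, each at 0.25 μg/mL, were applied for 1 h at room temperature.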

Row | IC50 | Compound
1 | 100 to 500 nM | CN[C@H]1CC[C@@H](N(C)c2nc3nnc(-c4ccc(-c5cn[nH]c5)cc4O)cc3s2)CC1 [Compound 345, 2-(6-{methyl[(1s,4s)-4-(methylamino)cyclohexyl]amino}[1,3]thiazolo[4,5-c]pyridazin-3-yl)-5-(1H-pyrazol-4-yl)phenol]
2 | 100 to 500 nM | CN(c1nc2nnc(-c3ccc(-c4cn[nH]c4)cc3O)cc2s1)[C@@H]1CNC[C@@H]1F [Compound 346, 2-(6-{[(3R,4S)-4-fluoropyrrolidin-3-yl](methyl)amino}[1,3]thiazolo[4,5-c]pyridazin-3-yl)-5-(1H-pyrazol-4-yl)phenol]
3 | 1000 to 3000 nM | CN1CC[C@@H]2[C@@H](CCN2c2nc3nnc(-c4ccc(-c5cn[nH]c5)cc4O)cc3s2)C1 [Compound 347, 2-{6-[(3aS,7aR)-5-methyloctahydro-1H-pyrrolo[3,2-c]pyridin-1-yl][1,3]thiazolo[4,5-c]pyridazin-3-yl}-5-(1H-pyrazol-4-yl)phenol]
4 | 100 to 500 nM | CN(c1nc2nnc(-c3ccc(-c4cn[nH]c4)cc3O)cc2s1)[C@@H]1CCCNC1 [Compound 348, 2-(6-{methyl[(3R)-piperidin-3-yl]amino}[1,3]thiazolo[4,5-c]pyridazin-3-yl)-5-(1H-pyrazol-4-yl)phenol]
5 | ≤ 100 nM | CN(c1nc2nnc(-c3ccc(-c4cn[nH]c4)cc3O)cc2s1)[C@H]1CCCNC1 [Compound 349, 2-(6-{methyl[(3S)-piperidin-3-yl]amino}[1,3]thiazolo[4,5-c]pyridazin-3-yl)-5-(1H-pyrazol-4-yl)phenol]
6 | 100 to 500 nM | CNC1CC(N(C)c2nc3nnc(-c4ccc(-c5cn[nH]c5)cc4O)cc3s2)C1 (stereo not drawn) [Compound 350, 2-(6-{methyl[3-(methylamino)cyclobutyl]amino}[1,3]thiazolo[4,5-c]pyridazin-3-yl)-5-(1H-pyrazol-4-yl)phenol]
7 | 1000 to 3000 nM | CN(C)[C@H]1CC[C@H](N(C)c2nc3nnc(-c4ccc(-c5cn[nH]c5)cc4O)cc3s2)CC1 [Compound 351, 2-(6-{[(1r,4r)-4-(dimethylamino)cyclohexyl](methyl)amino][1,3]thiazolo[4,5-c]pyridazin-3-yl)-5-(1H-pyrazol-4-yl)phenol]
8 | ≤ 100 nM | CN1CCC[C@H](N(C)c2nc3nnc(-c4ccc(-c5cn[nH]c5)cc4O)cc3s2)C1 [Compound 352, 2-(6-{methyl[(3S)-1-methylpiperidin-3-yl]amino}[1,3]thiazolo[4,5-c]pyridazin-3-yl)-5-(1H-pyrazol-4-yl)phenol]
9 | 100 to 500 nM | CN(c1nc2nnc(-c3ccc(-c4cn[nH]c4)cc3O)cc2s1)C1CNC1 [Compound 353, 2-{6-[(azetidin-3-yl)(methyl)amino][1,3]thiazolo[4,5-c]pyridazin-3-yl}-5-(1H-pyrazol-4-yl)phenol]
10 | ≤ 100 nM | Oc1cc(-c2cn[nH]c2)ccc1-c1cc2sc(N3CCC34CCNCC4)nc2nn1 [Compound 354, 2-[6-(1,7-diazaspiro[3.5]nonan-1-yl)[1,3]thiazolo[4,5-c]pyridazin-3-yl]-5-(1H-pyrazol-4-yl)phenol]
11 | 100 to 500 nM | CN(c1nc2nnc(-c3ccc(-c4cn[nH]c4)cc3O)cc2s1)C1CC2(CNC2)C1 [Compound 356, 2-{6-[(2-azaspiro[3.3]heptan-6-yl)(methyl)amino][1,3]thiazolo[4,5-c]pyridazin-3-yl}-5-(1H-pyrazol-4-yl)phenol]
12 | 100 to 500 nM | Oc1cc(-c2cn[nH]c2)ccc1-c1cc2sc(NC3CCNCC3)nc2nn1 [Compound 357, 2-{6-[(piperidin-4-yl)amino][1,3]thiazolo[4,5-c]pyridazin-3-yl)-5-(1H-pyrazol-4-yl)phenol]
13 | 100 to 500 nM | CN[C@H]1C[C@@H](N(C)c2nc3nnc(-c4ccc(-c5cn[nH]c5)cc4O)cc3s2)C1 [Compound 361, 2-(6-{methyl[(1s,3s)-3-(methylamino)cyclobutyl]amino}[1,3]thiazolo[4,5-c]pyridazin-3-yl)-5-(1H-pyrazol-4-yl)phenol]
14 | ≤ 100 nM | Oc1cc(-c2cn[nH]c2)ccc1-c1cc2sc(N3CC[C@H]4CCNC[C@H]43)nc2nn1 [Compound 362, 2-{6-[(3aR,7aS)-octahydro-1H-pyrrolo[2,3-c]pyridin-1-yl][1,3]thiazolo[4,5-c]pyridazin-3-yl}-5-(1H-pyrazol-4-yl)phenol]
15 | ≤ 100 nM | Oc1cc(-c2cn[nH]c2)ccc1-c1cc2sc(N3CCC34CCCNC4)nc2nn1 (stereo not drawn) [Compound 363, 2-[6-(1,6-diazaspiro[3.5]nonan-1-yl)[1,3]thiazolo[4,5-c]pyridazin-3-yl]-5-(1H-pyrazol-4-yl)phenol]
16 | 1000 to 3000 nM | CN(C)[C@H]1C[C@@H](N(C)c2nc3nnc(-c4ccc(-c5cn[nH]c5)cc4O)cc3s2)C1 [Compound 364, 2-(6-{[(1s,3s)-3-(dimethylamino)cyclobutyl](methyl)amino}[1,3]thiazolo[4,5-c]pyridazin-3-yl)-5-(1H-pyrazol-4-yl)phenol]
17 | ≤ 100 nM | CN1CCC(Nc2nc3nnc(-c4ccc(-c5cn[nH]c5)cc4O)cc3s2)CC1 [Compound 366, 2-{6-[(1-methylpiperidin-4-yl)amino][1,3]thiazolo[4,5-c]pyridazin-3-yl}-5-(1H-pyrazol-4-yl)phenol]
18 | 100 to 500 nM | Oc1cc(-c2cn[nH]c2)ccc1-c1cc2sc(NC3CCNC3)nc2nn1 (stereo not drawn) [Compound 367, 5-(1H-pyrazol-4-yl)-2-{6-[(pyrrolidin-3-yl)amino][1,3]thiazolo[4,5-c]pyridazin-3-yl}phenol]
19 | 100 to 500 nM | Oc1cc(-c2c[nH]nc2F)ccc1-c1cc2sc(N3CC4(CNC4)C3)nc2nn1 [Compound 368, 2-[6-(2,6-diazaspiro[3.3]heptan-2-yl)[1,3]thiazolo[4,5-c]pyridazin-3-yl]-5-(3-fluoro-1H-pyrazol-4-yl)phenol]
20 | 100 to 500 nM | CN1CC[C@@H]2CCN(c3nc4nnc(-c5ccc(-c6cn[nH]c6)cc5O)cc4s3)[C@@H]2C1 [Compound 369, 2-{6-[(3aR,7aS)-6-methyloctahydro-1H-pyrrolo[2,3-c]pyridin-1-yl][1,3]thiazolo[4,5-c]pyridazin-3-yl}-5-(1H-pyrazol-4-yl)phenol]
21 | ≤ 100 nM | CN1CCCC2(CCN2c2nc3nnc(-c4ccc(-c5cn[nH]c5)cc4O)cc3s2)C1 (stereo not drawn) [Compound 370, 2-[6-(6-methyl-1,6-diazaspiro[3.5]nonan-1-yl)[1,3]thiazolo[4,5-c]pyridazin-3-yl]-5-(1H-pyrazol-4-yl)phenol]
22 | ≤ 100 nM | CN1CCC(Nc2nc3nnc(-c4ccc(-c5cn[nH]c5)cc4O)cc3s2)C1 (stereo not drawn) [Compound 373, 2-{6-[(1-methylpyrrolidin-3-yl)amino][1,3]thiazolo[4,5-c]pyridazin-3-yl}-5-(1H-pyrazol-4-yl)phenol]
23 | ≤ 100 nM | CN(c1nc2nnc(-c3ccc(-c4cn[nH]c4)cc3O)cc2s1)C1CCNC1 (stereo not drawn) [Compound 374, 2-{6-[methyl(pyrrolidin-3-yl)amino][1,3]thiazolo[4,5-c]pyridazin-3-yl}-5-(1H-pyrazol-4-yl)phenol]
24 | ≤ 100 nM | CN1CCC(N(C)c2nc3nnc(-c4ccc(-c5cn[nH]c5)cc4O)cc3s2)C1 (stereo not drawn) [Compound 375, 2-{6-[methyl(1-methylpyrrolidin-3-yl)amino][1,3]thiazolo[4,5-c]pyridazin-3-yl}-5-(1H-pyrazol-4-yl)phenol]
25 | 100 to 500 nM | CN[C@H]1C[C@H](N(C)c2nc3nnc(-c4ccc(-c5cn[nH]c5)cc4O)cc3s2)C1 [Compound 376, 2-(6-{methyl[(1r,3r)-3-(methylamino)cyclobutyl]amino}[1,3]thiazolo[4,5-c]pyridazin-3-yl)-5-(1H-pyrazol-4-yl)phenol]

Row | Compound | IC50
26 | CN(c1nc2nnc(-c3ccc(-c4cn[nH]c4)cc3O)cc2s1)C1CCNCC1(C)C (stereo not drawn) [Compound 355, 2-{6-[(3,3-dimethylpiperidin-4-yl)(methyl)amino][1,3]thiazolo[4,5-c]pyridazin-3-yl}-5-(1H-pyrazol-4-yl)phenol] | ≤ 100 nM
27 | CN(c1nc2nnc(-c3ccc(-c4cn[nH]c4)cc3O)cc2s1)[C@H]1CCNC[C@H]1F [Compound 358, 2-(6-{[(3R,4S)-3-fluoropiperidin-4-yl](methyl)amino}[1,3]thiazolo[4,5-c]pyridazin-3-yl)-5-(1H-pyrazol-4-yl)phenol] | 500 to 1000 nM
28 | Cc1nc2c(C)cc(-c3cc(F)c4nc([C@H]5C[C@@H](C)N[C@@H](C)C5)sc4c3)nc2o1 [Compound 359, 5-{2-[(2R,4r,6S)-2,6-dimethylpiperidin-4-yl]-4-fluoro-1,3-benzothiazol-6-yl}-2,7-dimethyl[1,3]oxazolo[5,4-b]pyridine] | ≤ 100 nM
29 | CN(c1nc2nnc(-c3ccc(-c4cn[nH]c4)cc3O)cc2s1)[C@@H]1CCNC[C@H]1F [Compound 365, 2-(6-{[(3R,4R)-3-fluoropiperidin-4-yl](methyl)amino}[1,3]thiazolo[4,5-c]pyridazin-3-yl)-5-(1H-pyrazol-4-yl)phenol] | 100 to 500 nM
30 | CN(c1nc2nnc(-c3ccc(-c4cn[nH]c4)cc3O)cc2s1)[C@H]1CCN[C@H](CO)C1 [Compound 371, 2-(6-{[(2S,4S)-2-(hydroxymethyl)piperidin-4-yl](methyl)amino}[1,3]thiazolo[4,5-c]pyridazin-3-yl)-5-(1H-pyrazol-4-yl)phenol] | ≤ 100 nM
31 | CN1CC[C@H](N(C)c2nc3nnc(-c4ccc(-c5cn[nH]c5)cc4O)cc3s2)C[C@H]1CO [Compound 372, 2-(6-{[(2S,4S)-2-(hydroxymethyl)-1-methylpiperidin-4-yl](methyl)amino}[1,3]thiazolo[4,5-c]pyridazin-3-yl)-5-(1H-pyrazol-4-yl)phenol] | ≤ 100 nM
32 | CC1CC(N(C)c2nc3cnc(-c4cc(C#N)c5nn(C)cc5c4)cc3s2)CCN1C (stereo not drawn) [Compound 377, 5-{2-[(1,2-dimethylpiperidin-4-yl)(methyl)amino][1,3]thiazolo[4,5-c]pyridin-6-yl}-2-methyl-2H-indazole-7-carbonitrile] | 100 to 500 nM
33 | CC1CC(N(C)c2nc3cnc(-c4cc(F)c5nn(C)cc5c4)cc3s2)CCN1C (stereo not drawn) [Compound 378, N-(1,2-dimethylpiperidin-4-yl)-6-(7-fluoro-2-methyl-2H-indazol-5-yl)-N-methyl[1,3]thiazolo[4,5-c]pyridin-2-amine] | 100 to 500 nM

Source: patent US12139499B2, “Heteroaryl compounds for treating Huntington's disease” (PTC THERAPEUTICS, INC., priority 2018, dated 2024)
